# Assay results published in patent US8334316B2, “Substituted organosulfur compounds and methods of using thereof” (ACEA Biosciences, Inc., priority 2004, dated 2012).
# Several values for one entry are separate records, joined by “and”; a condition that tells them apart may be missing. Identical values can stand only once. Marks after values point to notes of the source that are not given here.
# Tests used:
# [1] = tested on: Bcap-37 human breast cancer; test: Bcap-37 human breast cancer xenograft in nude mice, dosing from day 7 when tumors palpable (Example 5); format: in vivo; settings: for Tumor Inhibition Rate C − T/C %: based on tumor weight; for Tumor Volume (g) X ± SD: end of study
# Procedure: Only female mice were used in this study. […] The high, middle and low doses of ACEA100108 were 50, […] and 8 mg/kg/d, respectively.
# Preparation and Administration of Test Compounds. […] Seven days after the tumor transplantation, the transplanted tumors grew to size sufficiently large that could be felt by hands when one touched the animal. […] The high, middle and low dose of ACEA100108 was 50, 20 and 8 mg/kg, respectively.
# About seven days after the transplantation, tumors in the mice grew sufficiently large so that tumor could be felt by hands when one touched the animals.
# For the human breast cancer xenograft model, all used materials, including animal food, animal cage, supporting materials and apparatus contacted by animals, were high-pressure sterilized. Nude mice were maintained in laminar flow shelves under SPF condition. After tumor transplantation, mouse weight and tumor size in each compound dosage group were dynamically monitored and recorded. The tumors size was determined by measuring the major axis (a) and minor axis (b) of the tumor, and tumor volume was calculated according to the equation (3) in Example 3.
# [2] = tested on: A549 human lung cancer cells; test: Apoptosis: Annexin V-Cy3 / 6-CFDA staining of A549 cells; format: cell-based; settings: 24 hrs
# Procedure: The cells were incubated with the drugs for 24 hours and then washed 2× with PBS and 3× with binding buffer (10 mM HEPES, pH 7.5, 140 mM NaCl, 2.5 mM CaCl2). […] The cells were gently washed 3× in 1× binding buffer, mounted, viewed under immunofluorescent microscope and imaged using an attached CCD camera. Note that live cells show staining only with 6-CFDA (green), while necrotic cells will stain only with Annexin V-Cy3 (red). Cells starting the apoptotic process will stain both with AnnexinV-Cy3 and 6-CFDA.
# [3] = tested on: A549 human lung cancer cells; test: Cell-cycle distribution by propidium iodide flow cytometry in A549 cells; format: cell-based; settings: 24 hrs, vs DMSO
# Procedure: Another in vitro assay may be used to evaluate the effect of compounds in arresting the cell cycle progression. More specifically, a test compound is added to cells of certain cell lines in a concentration-dependent manner. After cells are incubated for certain specific length of time, cells are stained using propidium iodide and are used for flow cytometric assessment. The cell populations of sub-G0/G1, G0/G1, S and G2/M phases are determined. All above in vitro assays are cell-based, single-time point (or multiple-time points using multiple plates) end-point assays.
# Microtubules are extremely important in the process of mitosis, during which the duplicated chromosomes of a cell are separated into two identical sets before cleavage of the cell into two daughter cells. […] As consequence, cells will be arrested at G2/M phase.
# In briefly, A549 cells were seeded at a density of 500,000 cells in 60 mm tissue culture dishes. Approximately 18 hours later the cells were treated with the indicated concentrations of anti-mitotic compounds and allowed to further incubate for 24 hours. The cells were washed in PBS, trypsinized, counted and fixed in ice-cold 70% methanol and stored at 4° C. The cells were washed with PBS, stained with propidium iodide and kept on ice until flow cytometry analysis.
# [4] = tested on: ao10/17 human ovarian cancer; test: ao10/17 human ovarian cancer xenograft in nude mice (Example 4); format: in vivo
# [5] = tested on: mouse sarcoma S180; test: In vivo antitumor efficacy, mouse sarcoma S180 model (subcutaneously transplanted), Example 1
# [6] = tested on: mouse Lewis lung cancer; test: In vivo antitumor efficacy, mouse Lewis lung cancer model, Example 2 (DBTS, CTX, Taxol reference)
# [7] = 20 mg/kg iv x7 qd, 0 d (beginning)
smiles,measurement,setting,value
"Fc1ccc(CSSSCc2ccc(F)cc2)cc1 [ACEA100108, Di(p-fluorobenzyl)trisulfide]",Body weight of mice,"[1]; 8 mg/kg iv x7 qd, 0 d (beginning)",18.5 g and 18.5 ± 1 g
same,Body weight of mice,"[1]; 8 mg/kg iv x7 qd, 7 d",19.8 ± 1.5 g
same,Mice with palpable tumor / total mice,"[1]; 8 mg/kg iv x7 qd, 7 d",6/6††
same,Tumor volume (cm^3),"[1]; 8 mg/kg iv x7 qd, 7 d after transplantation (start of dosing)",0.01 cm^3
same,Body weight of mice,"[1]; 8 mg/kg iv x7 qd, 14 d",21.7 ± 1.4 g
same,Tumor volume (cm^3),"[1]; 8 mg/kg iv x7 qd, 14 d",0.107 ± 0.02 cm^3
same,Body weight of mice,"[1]; 8 mg/kg iv x7 qd, 21 d",23.2 ± 1.5 g
same,Tumor volume (cm^3),"[1]; 8 mg/kg iv x7 qd, 21 d",0.27 ± 0.03 cm^3
same,Tumor volume (cm^3),"[1]; 8 mg/kg iv x7 qd, 24 d",0.962 ± 0.23 cm^3
same,Body weight of mice,"[1]; 8 mg/kg iv x7 qd, 24 d (end)",24.0 g and 24 ± 1.4 g
same,Tumor Volume Inhibition T/C %,[1]; 8 mg/kg/d iv x7 qd,53.38%
same,Tumor weight,[1]; 8 mg/kg/d iv x7 qd,1.12 ± 0.18 g
same,Tumor Inhibition Rate C − T/C %,[1]; 8 mg/kg/d iv x7 qd,28.21%
same,Tumor Volume (g) X ± SD,[1]; 8 mg/kg/d iv x7 qd,0.962 ± 0.23*** cm^3
same,Body weight of mice,[1]; [7],18.8 ± 1.2 g
same,Body weight of mice,"[1]; 20 mg/kg iv x7 qd, 7 d",19.5 ± 1 g
same,Mice with palpable tumor / total mice,"[1]; 20 mg/kg iv x7 qd, 7 d",6/6††
same,Tumor volume (cm^3),"[1]; 20 mg/kg iv x7 qd, 7 d after transplantation (start of dosing)",0.01 cm^3
same,Body weight of mice,"[1]; 20 mg/kg iv x7 qd, 14 d",21.2 ± 1.5 g
same,Tumor volume (cm^3),"[1]; 20 mg/kg iv x7 qd, 14 d",0.087 ± 0.01 cm^3
same,Body weight of mice,"[1]; 20 mg/kg iv x7 qd, 21 d",22.3 ± 1.6 g
same,Tumor volume (cm^3),"[1]; 20 mg/kg iv x7 qd, 21 d",0.23 ± 0.04 cm^3
same,Tumor volume (cm^3),"[1]; 20 mg/kg iv x7 qd, 24 d",0.74 ± 0.18 cm^3
same,Body weight of mice,"[1]; 20 mg/kg iv x7 qd, 24 d (end)",24.3 g and 24.3 ± 0.8 g
same,Tumor Volume Inhibition T/C %,[1]; 20 mg/kg/d iv x7 qd,41.06%
same,Tumor weight,[1]; 20 mg/kg/d iv x7 qd,0.822 ± 0.12 g
same,Tumor Inhibition Rate C − T/C %,[1]; 20 mg/kg/d iv x7 qd,47.31%
same,Tumor Volume (g) X ± SD,[1]; 20 mg/kg/d iv x7 qd,0.740 ± 0.18*** cm^3
same,Body weight of mice,"[1]; 50 mg/kg iv x7 qd, 0 d (beginning)",18.2 g and 18.2 ± 1.2 g
same,Body weight of mice,"[1]; 50 mg/kg iv x7 qd, 7 d",19.3 ± 1 g
same,Mice with palpable tumor / total mice,"[1]; 50 mg/kg iv x7 qd, 7 d",6/6††
same,Tumor volume (cm^3),"[1]; 50 mg/kg iv x7 qd, 7 d after transplantation (start of dosing)",0.01 cm^3
same,Body weight of mice,"[1]; 50 mg/kg iv x7 qd, 14 d",20.7 ± 1.2 g
same,Tumor volume (cm^3),"[1]; 50 mg/kg iv x7 qd, 14 d",0.049 ± 0.02 cm^3
same,Body weight of mice,"[1]; 50 mg/kg iv x7 qd, 21 d",21.8 ± 1.5 g
same,Tumor volume (cm^3),"[1]; 50 mg/kg iv x7 qd, 21 d",0.169 ± 0.03 cm^3
same,Tumor volume (cm^3),"[1]; 50 mg/kg iv x7 qd, 24 d",0.485 ± 0.06 cm^3
same,Body weight of mice,"[1]; 50 mg/kg iv x7 qd, 24 d (end)",22.8 g and 22.8 ± 1.5 g
same,Body weight of mice,"[1]; 50 mg/kg iv x10 qd, 0 d (beginning)",18.8 g and 18.8 ± 1 g
same,Body weight of mice,"[1]; 50 mg/kg iv x10 qd, 7 d",19.7 ± 1 g
same,Mice with palpable tumor / total mice,"[1]; 50 mg/kg iv x10 qd, 7 d",6/6††
same,Tumor volume (cm^3),"[1]; 50 mg/kg iv x10 qd, 7 d after transplantation (start of dosing)",0.01 cm^3
same,Body weight of mice,"[1]; 50 mg/kg iv x10 qd, 14 d",20.3 ± 1.4 g
same,Tumor volume (cm^3),"[1]; 50 mg/kg iv x10 qd, 14 d",0.048 ± 0.03 cm^3
same,Body weight of mice,"[1]; 50 mg/kg iv x10 qd, 21 d",21.5 ± 1.8 g
same,Tumor volume (cm^3),"[1]; 50 mg/kg iv x10 qd, 21 d",0.114 ± 0.02 cm^3
same,Tumor volume (cm^3),"[1]; 50 mg/kg iv x10 qd, 24 d",0.28 ± 0.04 cm^3
same,Body weight of mice,"[1]; 50 mg/kg iv x10 qd, 24 d (end)",21.2 g and 21.2 ± 1.2 g
same,Tumor Volume Inhibition T/C %,[1]; 50 mg/kg/d iv x7 qd,26.91%
same,Tumor weight,[1]; 50 mg/kg/d iv x7 qd,0.745 ± 0.10 g
same,Tumor Volume (g) X ± SD,[1]; 50 mg/kg/d iv x7 qd,0.485 ± 0.06*** cm^3
same,Tumor Volume Inhibition T/C %,[1]; 50 mg/kg/d iv x10 qd,15.53%
same,Tumor weight,[1]; 50 mg/kg/d iv x10 qd,0.672 ± 0.10 g
same,Tumor Inhibition Rate C − T/C %,[1]; 50 mg/kg/d iv x10 qd,56.92%
same,Tumor Volume (g) X ± SD,[1]; 50 mg/kg/d iv x10 qd,0.280 ± 0.04*** cm^3
same,Annexin V staining (apoptosis),[2]; 1 uM,strong staining of Annexin V
same,Cell population at G2/M phase,[3]; 25 uM,increased significantly
same,Body weight of mice,[4]; [7],17.2 g and 17.2 ± 1.2 g
"c1ccc(CSSSCc2ccccc2)cc1 [DBTS, Dibenzyl trisulfide]",Animal weight (g) end,[5]; 12.5 mg/kg/d iv x7 qd,24.5 g
same,Inhibition rate (%),"[5]; 12.5 mg/kg/d iv x7 qd, vs 10% solvent control",30.46%
same,Inhibition rate (%),"[5]; 12.5 mg/kg/d iv x7 qd, vs normal saline control",48.69%
same,Inhibition rate (%),"[5]; 25 mg/kg/d iv x7 qd, vs 10% solvent control",38.58%
same,Inhibition rate (%),"[5]; 25 mg/kg/d iv x7 qd, vs normal saline control",54.68%
same,Inhibition rate (%),"[5]; 50 mg/kg/d iv x7 qd, vs 10% solvent control",50.25%
same,Inhibition rate (%),"[5]; 50 mg/kg/d iv x7 qd, vs normal saline control",63.30% and 65%
same,Tumor weight,[6]; 12.5 mg/kg/d iv x10 qd,1.59 ± 0.16 g
same,tumor inhibition rate %,"[6]; 12.5 mg/kg/d iv x10 qd, vs 5% solvent control",35.10%
same,tumor inhibition rate %,"[6]; 12.5 mg/kg/d iv x10 qd, vs normal saline control",43.10% and 43.01%
same,Tumor weight,[6]; 25 mg/kg/d iv x10 qd,1.35 ± 0.10 g
same,tumor inhibition rate %,"[6]; 25 mg/kg/d iv x10 qd, vs 5% solvent control",46.94%
same,tumor inhibition rate %,"[6]; 25 mg/kg/d iv x10 qd, vs normal saline control",51.61%
same,Tumor weight,[6]; 50 mg/kg/d iv x10 qd,0.955 ± 0.20 g
same,tumor inhibition rate %,"[6]; 50 mg/kg/d iv x10 qd, vs 5% solvent control",61.02%
same,tumor inhibition rate %,"[6]; 50 mg/kg/d iv x10 qd, vs normal saline control",65.77% and 65%
"CC(=O)O[C@H]1C(=O)[C@@]2(C)[C@H]([C@H](OC(=O)c3ccccc3)[C@]3(O)C[C@H](OC(=O)[C@H](O)[C@@H](NC(=O)c4ccccc4)c4ccccc4)C(C)=C1C3(C)C)[C@]1(OC(C)=O)CO[C@@H]1C[C@@H]2O [Taxol, paclitaxel, reference compound]",Tumor weight,[6]; 7.5 mg/kg/d iv x5 qd,1.98 ± 0.14 g
same,tumor inhibition rate %,"[6]; 7.5 mg/kg/d iv x5 qd, vs normal saline control",30.28%
same,Tumor weight,[6]; 10 mg/kg/d iv x5 qd,1.79 ± 0.09 g
same,tumor inhibition rate %,"[6]; 10 mg/kg/d iv x5 qd, vs normal saline control",36.97%
same,Tumor weight,[6]; 15 mg/kg/d iv x5 qd,1.45 ± 0.14 g
same,tumor inhibition rate %,"[6]; 15 mg/kg/d iv x5 qd, vs normal saline control",48.94%
same,Body weight of mice,"[1]; 10 mg/kg iv x7 qd, 0 d (beginning)",18.8 g and 18.8 ± 1 g
same,Body weight of mice,"[1]; 10 mg/kg iv x7 qd, 7 d",20.5 ± 1 g
same,Mice with palpable tumor / total mice,"[1]; 10 mg/kg iv x7 qd, 7 d",6/6††
same,Tumor volume (cm^3),"[1]; 10 mg/kg iv x7 qd, 7 d after transplantation (start of dosing)",0.01 cm^3
same,Tumor volume (cm^3),"[1]; 10 mg/kg iv x7 qd, 14 d",0.103 ± 0.02 cm^3
same,Tumor volume (cm^3),"[1]; 10 mg/kg iv x7 qd, 21 d",0.283 ± 0.05 cm^3
same,Tumor volume (cm^3),"[1]; 10 mg/kg iv x7 qd, 24 d",0.799 ± 0.23 cm^3
same,Tumor Volume Inhibition T/C %,[1]; 10 mg/kg/d iv x7 qd,44.33%
same,Tumor weight,[1]; 10 mg/kg/d iv x7 qd,0.92 ± 0.07 g
same,Tumor Inhibition Rate C − T/C %,[1]; 10 mg/kg/d iv x7 qd,41.03%
same,Annexin V staining (apoptosis),[2]; 50 nM,strong staining of Annexin V
same,Cell population at G2/M phase,[3]; 7.8 nM,increased significantly
same,Mice with palpable tumor / total mice,"[4]; 10 mg/kg iv x7 qd, 7 D after transplantation",2/6
